US7157092B1, “Acyl pseudodipeptides, preparation method and pharmaceutical compositions containing same” (Om Pharma, priority 1998, dated 2007)
Values joined by “and” are separate entries in the source; they are usually repeats but may differ in a detail not shown here. Equal entries are not always repeated. Where two headings read alike, the source gives them in different places.

Experiments:
LmCPb antigen = assay type: in vivo, CBA mice; conditions: 2 injections LmCPb with adjuvant
H1N1 antigen = assay: Subcutaneous immunization with H1N1 antigen: specific serum immunoglobulins (ELISA); assay type: in vivo, BALB/c mice; conditions: for Immunoglobulins specifically raised against H1N1 of IgG1 subclass / Immunoglobulins specifically raised against H1N1 of IgG2a subclass / Immunoglobulins specifically raised against H1N1 of IgM subclass: s.c. injections days 0 and 14, H1N1 2.5 μg, adjuvant 50 μg per injection, ± SD; for adjuvant effect on titer of antibodies specifically raised against H1N1: after one or two injections, FIGS. 22-24
DC-6 cells = assay: α TNF production by predendritic cells at DC-6 stage (ELISA); conditions: 10 μg/ml; 4, 6 and 24 hr; FIG. 10
murine macrophage cells = assay: Nitric oxide production in supernatants of macrophage cultures (Griess); assay type: cell-based, C57/BL6 mice; conditions: 22 hours incubation, Griess reagent; FIG. 2
Protocol: Two six-week old male C57/BL6 mice were killed by CO2 inhalation followed by cervical dislocation. The mice were washed with alcohol, and the skin of the posterior members was entirely removed. The hip, the femur and the tibia bones were removed by joint disruption. The flesh was grossly removed using a scalpel. The bones were cleaned and the bone ends were cut with scissors. The marrrow was aspirated by injecting three times 1 ml of Dulbecco's Modified Eagle Medium (DH medium) in the bone lumen. The cells were resuspended in DH medium and centrifuged at 300×g for 5 minutes. The supernatant fluid was discarded and the cells were resuspended at a density of 40 000 cells/ml in DH medium supplemented with 20% horse serum (HS) and 30% L929 culture supernatant. L929 is a murine fibroblast cell line the supernatant fluid of which is rich in growth factor for macrophage (M-CSF). […]
After 22 hours, the microtiter plates were centrifuged, 5 minutes at 400×g and 100 μl of supernatant fluid were withdrawn and transferred into a microtiter plate. […] The microtiter plates were read with a spectrophotometer at 562 nm wavelength against a reference at 690 nm. […]
The results are expressed as mean±standard deviation after deduction of the negative control value and plotted as a dose versus response curve.

[1] = system: Pb CS 245-252 T-cell epitope; assay: Murine immunization with Pb CS His6-242-310 peptide: CTL response (γ IFN ELISPOT); conditions: 0.05 mg adjuvant + 0.02 mg antigen s.c.; FIGS. 17-20
[2] = system: PROb syngenic tumoral line; assay: Treatment of peritoneal carcinoma induced by PROb cells in BDIX rats
UreB 1-569 = assay: Nasal immunization with urease B subunit of Heliobacter pylori: serum anti-UreB immunoglobulins (ELISA); assay type: in vivo, BALB/c mice; conditions: 4 times weekly, 25 μg OM-294-DP alone
monocytes and DC-6 cells = assay: IL-12 p70 production by monocytes and DC-6 cells (ELISA); conditions: 10 μg/ml, in presence of γ IFN; FIGS. 11, 12
[3] = in vitro: Amastigotes 17 × 10^−6/ml
[4] = 10 i.v. injections of 1 mg/kg from day 13
[5] = 10 i.v. injections of 1 mg/kg from day 13, dissection at D42

CCCCCCCCCCCC(=O)O[C@H](CCCCCCCCCCC)CC(=O)NC(CCOP(=O)(O)O)C(=O)NCCCC(COP(=O)(O)O)NC(=O)C[C@H](O)CCCCCCCCCCC (stereo partly drawn) [OM-294-DP, 3-[(R)-3-dodecanoyloxytetradecanoylamino]-4-oxo-5-aza-9-[(R)-3-hydroxytetradecanoylamino]decan-1,10-diol 1, 10-bis(dihydrogenphosphate)]
IL-4 concentration (LmCPb antigen; [3]): 130 pg/mL and 110 pg/mL | γ IFN concentration (LmCPb antigen; [3]): >600 pg/mL | γ IFN concentration (LmCPb antigen; in vitro: Con A 5 μg/ml): 1200 pg/mL and 1900 pg/mL | IL-4 concentration (LmCPb antigen; in vitro: LmCPb 15 μg/ml): 110 pg/mL and 88 pg/mL | γ IFN concentration (LmCPb antigen; in vitro: LmCPb 15 μg/ml): 520 pg/mL and 360 pg/mL | IL-4 concentration (LmCPb antigen; in vitro: No stimulant): <8 pg/mL | γ IFN concentration (LmCPb antigen; in vitro: No stimulant): 460 pg/mL and 240 pg/mL | Immunoglobulins specifically raised against H1N1 of IgG1 subclass (H1N1 antigen; Day 14): 59 ± 21 Arbitrary units/ml | Immunoglobulins specifically raised against H1N1 of IgG2a subclass (H1N1 antigen; Day 14): 452 ± 584 Arbitrary units/ml | Immunoglobulins specifically raised against H1N1 of IgM subclass (H1N1 antigen; Day 14): 20756 ± 7160 Arbitrary units/ml | Immunoglobulins specifically raised against H1N1 of IgG1 subclass (H1N1 antigen; Day 28): 38 ± 25 Arbitrary units/ml | Immunoglobulins specifically raised against H1N1 of IgG2a subclass (H1N1 antigen; Day 28): 782 ± 857 Arbitrary units/ml | Immunoglobulins specifically raised against H1N1 of IgM subclass (H1N1 antigen; Day 28): 20944 ± 9065 Arbitrary units/ml | adjuvant effect on titer of antibodies specifically raised against H1N1 (H1N1 antigen): significantly increase the titer of antibodies specifically raised against H1N1 | α TNF production by DC-6 cells (DC-6 cells): only a minor stimulating effect | production of nitric oxide by murine macrophage cells (murine macrophage cells): to a much greater extent than E. coli LPS | CTL activity of lymphocytes from spleen and inguinal lymph nodes (γ IFN spots) [1]: clearly superior to the one induced by IFA | Volume ascite, mean ± σ [2, 4]: 8 ± 23 ml/rat | Volume ascite, range [2, 4]: 0–73 ml/rat | animals surviving at day 42 following injection of tumor cells [2, 4]: 90% | Number of rats suffering from carcinoma belonging to class 0 (no nodules visible) [2, 5]: 4 | Number of rats suffering from carcinoma belonging to class 1 [2, 5]: 1 | Number of rats suffering from carcinoma belonging to class 2 [2, 5]: 2 | Number of rats suffering from carcinoma belonging to class 3 [2, 5]: 1 | Number of rats suffering from carcinoma belonging to class 4 [2, 5]: 2 | anti-tumor activity in the peritoneal carcinoma model ([2]; rat, in vivo): remarkable anti-tumor activity | Effect of product on ascite volume, p (Variance analysis) ([2]; versus NaCl): p < 0.05 | Effect of product on carcinoma classification, p (Kruskall-Wallis test) ([2]; versus NaCl): p < 0.05 | extension of rat survival rate, p (log rank test) ([2]; versus control): < 0.001 | anti-UreB antibodies in serum (UreB 1-569): No anti-UreB antibodies are detected

CCCCCCCCCCCC(=O)O[C@H](CCCCCCCCCCC)CC(=O)NC(CCOP(=O)(O)O)C(=O)NCCCC(CO)NC(=O)C[C@H](O)CCCCCCCCCCC (stereo partly drawn) [OM-294-MP, 3-[(R)-3-dodecanoyloxytetradecanoylamino]-4-oxo-5-aza-9-[(R)-3-hydroxytetradecanoylamino]-decane-1,10-diol 1-dihydrogenphosphate]
Immunoglobulins specifically raised against H1N1 of IgG1 subclass (H1N1 antigen; Day 14): 69 ± 34 Arbitrary units/ml | Immunoglobulins specifically raised against H1N1 of IgG2a subclass (H1N1 antigen; Day 14): 1619 ± 743 Arbitrary units/ml | Immunoglobulins specifically raised against H1N1 of IgM subclass (H1N1 antigen; Day 14): 19065 ± 4069 Arbitrary units/ml | Immunoglobulins specifically raised against H1N1 of IgG1 subclass (H1N1 antigen; Day 28): 59 ± 31 Arbitrary units/ml | Immunoglobulins specifically raised against H1N1 of IgG2a subclass (H1N1 antigen; Day 28): 1767 ± 1034 Arbitrary units/ml | Immunoglobulins specifically raised against H1N1 of IgM subclass (H1N1 antigen; Day 28): 18018 ± 1016 Arbitrary units/ml | adjuvant effect on titer of antibodies specifically raised against H1N1 (H1N1 antigen): significantly increase the titer of antibodies specifically raised against H1N1 | α TNF production by DC-6 cells (DC-6 cells): in a way similar to LPS | production of nitric oxide by murine macrophage cells (murine macrophage cells): weaker response | CTL activity of lymphocytes from spleen and inguinal lymph nodes (γ IFN spots) [1]: clearly superior to the one induced by IFA | IL-12 p70 production in monocytes and DC-6 cells (monocytes and DC-6 cells): induced in presence of γ IFN
